Entries after “also recorded” stand apart in the source; their conditions may differ.
Tests used:
[1] = tested on: Colo320 DM ecDNA+ and Colo320 HSR ecDNA− cells; assay: Sensitivity of Colo320 DM and Colo320 HSR to CHK1 inhibitors, seven days (FIG. 13); format: cell-based; conditions: CHK2 or ATM inhibition
Experimental: The sensitivity of an ecDNA+ cell line (Colo320 DM) compared with an ecDNA− cell line (Colo320 HSR) to four structurally distinct CHK1 inhibitors was determined.

HeLa cells [2] = assay: HeLa cell confluence by high-content microscopy over three weeks, with or without 100 nM methotrexate; format: cell-based; conditions: for cell growth (cell confluence), agent alone / development of methotrexate resistance: three weeks; for cell growth (cell confluence), agent alone: 10 nM GDC-0575, 100 nM methotrexate, 300 nM-10 μM AZD6738; for development of methotrexate resistance: in combination with 100 nM methotrexate
Experimental: Cell confluence was measured via high-content microscopy over the time course.
HeLa cells were treated with a WEE1 inhibitor, 0.01-0.3 μM adavosertib alone, with 1 nM-100 nM PD0166285, with 100 nM methotrexate alone, or with a combination of 0.01-0.3 μM adavosertib and 100 nM methotrexate or a combination of 1 nM-100 nM PD0166285 and 100 nM methotrexate over the course of three weeks. Cell confluence was measured via high-content microscopy over the time course.
HeLa cells were treated with a PARG inhibitor, 3-100 μM PD00017273 with (FIG. 35 top panel) or without (FIG. 35 bottom panel) 100 nM methotrexate over the course of 3 weeks. Cell confluence was measured via high-content microscopy over the time course.
Cell confluence was measured via high-content microscopy over the time course. […] However.

[3] = tested on: Colo320 ecDNA+ and Colo320 ecDNA− cells; assay: CellTiter-glo viability assay, 7 days, Colo320 ecDNA+ vs ecDNA−; format: cell-based
Experimental: (§1) Sensitivity of an ecDNA+ (Colo320 ecDNA+) and an ecDNA− (Colo320 ecDNA−) cell line models to WEE1 inhibition was determined by treating each with increasing concentrations of either adavosertib or PD0166285 over a 7 day period. Cell proliferation was determined using a MTS assay (FIG. 27, top panels), while viability was determined using CellTiter-glo assay (FIG. 27 bottom panels).
(§2) Cell proliferation was determined using a MTS assay (FIG. 36, top panels), while viability was determined using CellTiter-glo assay (FIG. 36, bottom panels).

[4] = tested on: Colo320 DM (ecDNA+) and Colo320 HSR (ecDNA−) cells; assay: MTS cell proliferation assay, 7 days, Colo320 ecDNA+ vs ecDNA−; format: cell-based
Experimental: as §1, §2

[5] = tested on: CT26WT E3 G12C KRAS mutant tumor cells; assay: Treatment of CT26WT E3 G12C KRAS mutant tumors in mice, tumor growth (Examples 3 and 4); format: in vivo; conditions: adagrasib 50 mg/kg orally once per day
Excerpt: (§3) Mice were implanted with CT26WT E3 G12C KRAS mutant tumor cells.
as §3

parental CT26 WT E3 line = assay: Culture of parental line with adagrasib; format: cell-based
[6] = tested on: KRASi resistant tumor cells cultured ex vivo; assay: KRASi resistant tumor cells implanted into NOD-SCID mice, tumor growth; format: in vivo; conditions: adagrasib 50 mg/kg orally once per day
Excerpt: KRASi resistant tumor cells cultured ex vivo from Example 5 were implanted into NOD-SCID mice. […] Mice were implanted with the KRAS-resistant tumor cells as above.

HeLa cells [7] = assay: HeLa colony formation assay, resistance formation to methotrexate (FIG. 32); format: cell-based; conditions: 10000 cells plated with methotrexate for 21 days, IC50, 1/3 IC50, or 1/9 IC50
[8] = tested on: panel of ecDNA+ cell lines; assay: Two-week soft-agar 3D colony formation assay, adavosertib (FIG. 31); format: cell-based; conditions: five-point dose range, two weeks
Experimental: FIG. 31 illustrates sensitivity of ecDNA+ cells to inhibition of WEE1 using adavosertib in a 3-dimensional colony formation assay conducted in soft-agar. A panel of ecDNA+ cell lines were interrogated in a two-week soft agar drug sensitivity assay. All lines were treated with a five-point dose range of adavosertib for two weeks and stained with crystal violet to quantify individual colony counts.

[9] = tested on: Colo320 ecDNA+ (COLO320 DM) and Colo320 ecDNA− (COLO320 HSR) cells; assay: Sensitivity of Colo320 ecDNA+ and ecDNA− cells to RNR inhibitors (FIG. 12); format: cell-based; conditions: for induction of replication stress marker, phosphorylation at serine positions 317 and 345 of CHK1: Colo320 DM and HSR cells
[10] = tested on: infigratinib-resistant SNU16 cells; assay: Secondary resistance, cell growth of infigratinib-resistant SNU16 cells over 5 weeks; format: cell-based, human; conditions: FIG. 26, 1 uM infigratinib, 1 uM erlotinib, 10 nM gemcitabine
Experimental: The infigratinib-resistant SNU16 cells (generated as shown in FIG. 25) were subdivided into six groups and each group of 1×10^6 cells was subjected to treatment with 1 uM infigratinib, 1 uM erlotinib, 10 nM gemcitabine, or 1 uM erlotinib+10 nM gemcitabine and the cell growth was recorded over 5 weeks. Each treatment arm was terminated once the cell number reached 5×10^6.

SNU16 cells = assay: Long-term cell growth / resistance development in SNU16 cells; format: cell-based, human; conditions: for cell growth / development of primary resistance: FIG. 25, 12 weeks, 1 uM infigratinib, 1 uM erlotinib, 10 nM gemcitabine; for cell growth / resistance formation: 9 weeks
Experimental: Each treatment arm was terminated once the cell number reached 5×10^6.
SNU16 cells were subdivided into five groups and each group of 1×10^6 cells was subjected to treatment with 1 μM infigratinib, 1 μM erlotinib, 1 μM infigratinib and 1 μM erlotinib, 0.1 μM adavosertib and cell growth was recorded over 9 weeks.
SNU16 cells were subdivided into five groups and each group of 1×10^6 cells was subjected to treatment with infigratinib, erlotinib, PD00017273, infigratinib and erlotinib, or infigratinib and PD00017273 and cell growth was recorded over 9 weeks.
SNU16 (CRL-5974) cell line was purchased from ATCC. SNU16 cells were grown in RPMI 1640 medium (Fisher Scientific) with 10% FBS and 100 U/ml penicillin/streptomycin (Fisher Scientific). For the resistance experiments, SNU16 cells were plated at 2 million per T75 flask and were treated with either 1 μM infigratinib (Selleck Chemicals), 1 μM erlotinib (Selleck Chemicals), 10 nM gemcitabine (Sigma Aldrich), or a combination. The media was changed and fresh drug was added at least once per week. The cells were counted over the span of several weeks to measure cell growth.

KRAS amplified ecDNA = assay: KRAS ecDNA by FISH in metaphase spreads from ex vivo cultures of treated tumors; parameters: species or system murine
Experimental: ecDNA were measured in metaphase spreads prepared from ex vivo cultures established from tumors taken from the mice on day of sacrifice. ecDNA counts were determined using FISH for murine KRAS.
Metaphase spreads were prepared from metaphase arrested and fixed ex vivo cultures established from tumors taken from mice in treatment groups and ecDNA was visualized by FISH for murine KRAS.

[11] = tested on: ecDNA+ cell lines (SNU16, Colo320 DM, H716, and H2170) and ecDNA− cell lines (DLD1, Colo320 HSR, Lovo, and SW48); assay: Two-week soft-agar 3D colony formation assay, gemcitabine (FIG. 5); format: cell-based; conditions: five-point dose range, two weeks, colony counts
Experimental: A panel of ecDNA+ and ecDNA− cell lines were interrogated in a two-week soft-agar drug sensitivity assay. All lines were treated with a five-point dose range of gemcitabine for two weeks and stained with crystal violet (FIG. 5, top panel) to quantify individual colony counts by ImageJ analysis (plotted in FIG. 5, bottom panel).

[12] = tested on: ecDNA+ (Colo320 DM) and ecDNA− (Colo320 HSR) cells; assay: DNA fiber analysis, replication fork speed; format: cell-based; conditions: 16 hr treatment
Experimental: FIGS. 42A-42B show intrinsic replication fork dysfunction in ecDNA(+) cancer cells is further compromised by RNR inhibition relative to […]. […] The two cell models were then pulse-labeled with the thymidine analogues chlorodeoxyuridine (CldU) and iododeoxyuridine (IdU) for 30 min each (FIG. 42A). Cells were lysed, DNA fibers spread out and immunostained using specific antibodies against CldU and IdU. […] A difference of -0.13 kb/min in replication fork speed between ecDNA+ and […] treated with RNRi was observed. Statistical significance was calculated using nonparametric Kolmogorov-Smirnov test. FIGS. 43A-43B show intrinsic replication fork dysfunction in ecDNA+ cancer cells is further compromised by CHK1 inhibition relative to […]. […] The two cell models were then pulse-labeled with the thymidine analogues chlorodeoxyuridine (CldU) and iododeoxyuridine (IdU) for 30 min each (FIG. 43A). Cells were lysed, DNA fibers spread out and immunostained using specific antibodies against CldU and IdU.

## CN(C)CCCOc1ccc(-c2ccc3ncc4c(c3c2)n(C2CCOCC2)c(=O)n4C)cn1 [AZD0156]
[1]
  differential sensitivity between the two lines: neither inhibiting CHK2 with CCT241533 nor inhibiting DDR target, ATM, with AZD0156 revealed any differential sensitivity

## C[C@@H]1COCCN1c1cc(C2([S@](C)(=N)=O)CC2)nc(-c2cc[nH]c3nccc2-3)n1 [AZD6738]
HeLa cells [2]
  cell growth (cell confluence), agent alone: did not affect HeLa cell growth
HeLa cells [2]; with 100 nM methotrexate, 3 weeks
  synthetic lethality with methotrexate: synthetic lethality
[3]
  sensitivity of Colo320 ecDNA+ compared with ecDNA− cells, viability changes: enhanced sensitivity
[4]
  sensitivity of Colo320 ecDNA+ compared with ecDNA− cells, proliferation changes: enhanced sensitivity

## COc1cc2nc(-c3cc(F)ccc3O)nc(N[C@@H]3CNC[C@H]3C(C)(C)O)c2cc1OC [CCT241533]
[1]
  differential sensitivity between the two lines: neither inhibiting CHK2 with CCT241533 nor inhibiting DDR target, ATM, with AZD0156 revealed any differential sensitivity

## CCN(CC)CCOc1ccc(Nc2ncc3cc(-c4c(Cl)cccc4Cl)c(=O)n(C)c3n2)cc1 [PD0166285]
HeLa cells [2]
  development of methotrexate resistance: abrogation of methotrexate resistance
[3]
  sensitivity of Colo320 ecDNA+ compared with ecDNA− cells, viability changes: enhanced sensitivity
[4]
  sensitivity of Colo320 ecDNA+ compared with ecDNA− cells, proliferation changes: enhanced sensitivity

## C=C(F)C(=O)N1CCN(c2nc(OC[C@@H]3CCCN3C)nc3c2CCN(c2cccc4cccc(Cl)c24)C3)C[C@@H]1CC#N [adagrasib]
[5]; Example 3
  day by which tumors began to exhibit resistance and tumor growth resumed: ≤ 14 days
[5]; Example 4
  delay in tumor growth before tumors developed resistance: about 2 weeks
Parental CT26 WT E3 line
  sensitivity to the drug in culture: remained sensitive to the drug

## C=CCn1c(=O)c2cnc(Nc3ccc(N4CCN(C)CC4)cc3)nc2n1-c1cccc(C(C)(C)O)n1 [adavosertib]
HeLa cells [2]
  development of methotrexate resistance: prevented development of methotrexate resistance
[3]
  sensitivity of Colo320 ecDNA+ compared with ecDNA− cells, viability changes: enhanced sensitivity
[4]
  sensitivity of Colo320 ecDNA+ compared with ecDNA− cells, proliferation changes: enhanced sensitivity
[6]; from about 180 mm^3, adavosertib 60 mg/kg orally once per day, PD0166285 0.3 mg/kg ip once per day
  tumor growth: inhibited tumor growth
HeLa cells [7]
  resistance formation to methotrexate: abrogation of resistance formation to methotrexate
[8]
  sensitivity, colony counts: demonstrated sensitivity

## Cc1ccc(F)c([C@@H](C)[C@H](NS(=O)(=O)c2ccc(Cl)cc2C(N)=O)c2n[nH]c(=O)o2)c1C [compound 1, 5-chloro-2-(n-((1S,2R)-2-(6-fluoro-2,3-dimethylphenyl)-1-(5-oxo-4,5-dihydro-1,3,4-oxadiazol-2-yl)propyl)sulfamoyl)benzamide]
[9]
  induction of replication stress marker, phosphorylation at serine positions 317 and 345 of CHK1: induced the replication stress marker

## C#Cc1cccc(Nc2ncnc3cc(OCCOC)c(OCCOC)cc23)c1 [erlotinib]
[10]
  cell growth / development of secondary resistance: delayed cell growth for the first two weeks, but the cells continued to grow quickly after that; also recorded: initially sensitive to EGFR inhibitor erlotinib but develop secondary resistance within three weeks
SNU16 cells
  cell growth / development of primary resistance: no effect on cell growth on its own
SNU16 cells; FIG. 30, 1 μM infigratinib, 1 μM erlotinib, 0.1 μM adavosertib
  cell growth / resistance formation: no effect on cell growth on its own
SNU16 cells; FIG. 34
  cell growth / resistance formation: little to no effect on cell growth

## Nc1ccn([C@@H]2O[C@H](CO)[C@@H](O)C2(F)F)c(=O)n1 [gemcitabine]
[5]; Example 3, from average volume 350 mm^3, gemcitabine 10 mg/kg ip every other day or 120 mg/kg ip once per week
  tumor growth: only KRASi (adagrasib) resulted in a significant delay in tumor growth
[5]; Example 4, gemcitabine 10 or 20 mg/kg ip every other day
  tumor growth: substantial tumor growth
[9]
  induction of replication stress marker, phosphorylation at serine positions 317 and 345 of CHK1: induced the replication stress marker
KRAS amplified ecDNA; Example 3, tumors at day of sacrifice (D21 or D16)
  KRAS ecDNA level: no KRAS amplified ecDNA was seen
KRAS amplified ecDNA; Example 4
  ecDNA copy number per metaphase spread where ecDNA present: 1-3 per metaphase spread
KRAS amplified ecDNA; Example 4, treatment group 3
  metaphase spreads with little to no ecDNA: 78/95
[11]
  fold enhanced sensitivity of ecDNA+ cell lines compared with ecDNA− cell lines: 5-10 fold
[10]
  cell growth / development of secondary resistance: delayed cell growth for the first two weeks, but the cells continued to grow quickly after that
[6]; from 290 mm^3, gemcitabine 10 mg/kg ip every other day
  tumor growth: inhibited tumor growth
SNU16 cells
  cell growth / development of primary resistance: delayed cell growth for the first two weeks, but the cells continued to grow quickly after that
[12]
  difference in replication fork speed between treated ecDNA+ and ecDNA− cells: −0.13 kb/min

## NC(=O)NO [hydroxyurea]
[9]
  induction of replication stress marker, phosphorylation at serine positions 317 and 345 of CHK1: induced the replication stress marker
[9]; ecDNA+ (Colo320 DM) cells, vs vehicle treated
  ecDNA copy number: markedly reduced

## CN(Cc1cnc2nc(N)nc(N)c2n1)c1ccc(C(=O)N[C@@H](CCC(=O)O)C(=O)O)cc1 [methotrexate]
HeLa cells [2]
  cell growth (cell confluence), agent alone: initially resulted in little to no cell growth, but after two weeks in culture, the cells began to develop resistance and cell growth resumed

## COc1cccc(OCCCN)c1-c1cc(Nc2cnc(C#N)cn2)n[nH]1 [prexasertib]
[12]
  difference in replication fork speed between treated ecDNA+ and ecDNA− cells: −0.1 kb/min

Source: patent US11642345B2, “Replication stress pathway agent compositions and methods for treating cancer” (Boundless Bio, Inc., priority 2020, dated 2023)
